Experimental data: patent US11293863B2, “Robust interferometer and methods of using same” (Vanderbilt University, priority 2015, dated 2022)

Key:
[1] = tested on: FAAH in small unilamellar vesicles; CXCR4 receptor; GABAB receptor in CHO cell membranes; assay: BSI label-free free-solution binding assays on membrane proteins (negative controls); settings: negative control compound, even the highest concentrations
Description: Membrane-associated proteins and their interactions are of paramount interest in the design of clinical therapeutics, accounting for almost 70% of existing drug candidate targets (Krummel and Davis (2002) Current Opinion in Immunology 14: 66-74; Overington et al. (2006) Nature Reviews Drug Discovery 5: 993-996). To date, it has been difficult to perform direct binding assays on cellular membranes except by down-stream signal transduction or the use of isotope labeling methods. BSI facilitated label-free, free solution binding assays on proteoliposomes (Bracey et al. (2002) Science 298: 1793-1796; Jass et al. (2000) Biophysical Journal 79: 3153-3163) from full-length, functional membrane proteins, from both natural and recombinant sources (Kussrow et al. (2010) Chembiochem DOI: 10.1002/cbic.201000671). […]

[2] = target: lectin Concanavalin A (ConA) (Canavalia ensiformis, UniProt P02866); settings: non-binding sugar used as control, free-solution BSI with ConA; cited from earlier work

Structure (SMILES) | BSI signal [1] | BSI binding signal [2]
CC(C)CCC[C@@H](C)[C@H]1CC[C@H]2[C@@H]3CC=C4C[C@@H](O)CC[C@]4(C)[C@H]3CC[C@]12C [cholesterol] | Little or no BSI signal | –
O=C[C@H](O)[C@@H](O)[C@@H](O)[C@H](O)CO [galactose] | – | no binding signal
C[C@H](N)C(=O)O [L-alanine] | Little or no BSI signal | –
